Source: patent publication US10023592B2, “Bromodomain inhibitors” (Celgene Quanticel Research, Inc., priority 2013, dated 2018)

What was measured:
[1] = target: BRD4(BD1) (Homo sapiens (Human), UniProt O60885); test: In vitro enzyme inhibition assay (BRD4 AlphaScreen); format: binding
In short: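 His-tagged BRD4 tested by AlphaScreen for binding of biotinylated H4K5/8/12/16-tetraacetyl peptide. After 20 min at room temperature, streptavidin donor and nickel chelate acceptor beads added (5 μg/mL final each). IC50 determined.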

[2] = test system: Raji, human Burkitts lymphoma cells; test: Cell-MTS proliferation assay, Raji; format: cell-based; settings: Homo sapiens, 168 hr
In short: (§1)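 Seed: Raji 15,000, HL-60 5,000, NCI-H460 3,000 cells/96-well. +24 hr: 11-pt compound dilution, 100 μM–2.0 nM final. 7 d culture, MTS reagent, read OD490; IC50 vs DMSO, background subtracted.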

[3] = test system: HL-60, human proleukemia cells; test: Cell-MTS proliferation assay, HL-60; format: cell-based; settings: Homo sapiens, 168 hr
In short: as §1

[4] = test system: NCI-H460, human non-small cell lung cancer cells; test: Cell-MTS proliferation assay, NCI-H460; format: cell-based; settings: Homo sapiens, 168 hr
In short: as §1

[5] = in vitro enzyme inhibition assay
[6] = NCI-H460, Cell-MTS proliferation
[7] = Cell-MTS proliferation, Raji cells
[8] = Cell-MTS proliferation, HL-60 cells
[9] = Cell-MTS proliferation, NCI-H460 cells
[10] = Raji, Cell-MTS, class symbols A/B/C
[11] = HL-60, Cell-MTS, class symbols A/B/C
[12] = NCI-H460, Cell-MTS, class symbols A/B/C

Cn1cc(-c2cc(S(C)(=O)=O)ccc2OCC2CC2)c2c(c1=O)CCCC2 [Example 217, 4-[2-(cyclopropylmethoxy)-5-methylsulfonylphenyl]-2-methyl-5,6,7,8-tetrahydroisoquinolin-1-one]
IC50 [1, 5]: < 500 nM
IC50 ([2]; Raji, Cell-MTS proliferation): < 500 nM
IC50 ([3]; HL-60, Cell-MTS proliferation): < 500 nM
IC50 [4, 6]: > 5000 nM

CC(C)n1cc(Oc2cc(-c3cc(S(C)(=O)=O)ccc3OCC3CC3)cn(C)c2=O)cn1 [Example 294, 5-[2-(cyclopropylmethoxy)-5-methylsulfonylphenyl]-1-methyl-3-(1-propan-2-ylpyrazol-4-yl)oxypyridin-2-one]
IC50 [1, 5]: < 500 nM
IC50 ([2]; Raji, Cell-MTS proliferation): > 5000 nM
IC50 ([3]; HL-60, Cell-MTS proliferation): 500 to 5000 nM
IC50 [4, 6]: > 5000 nM

Cn1cc(-c2nc(S(C)(=O)=O)ccc2OCC2CC2)c2ccoc2c1=O [Example 259, 4-[3-(cyclopropylmethoxy)-6-methylsulfonylpyridin-2-yl]-6-methylfuro[2,3-c]pyridin-7-one]
IC50 [1, 5]: < 500 nM
IC50 ([2]; Raji, Cell-MTS proliferation): 500 to 5000 nM
IC50 ([3]; HL-60, Cell-MTS proliferation): < 500 nM
IC50 [4, 6]: > 5000 nM

CCS(=O)(=O)c1ccc(NCC2CC2)c(-c2cn(C)c(=O)c3ccccc23)c1 [Example 193, 4-[2-(cyclopropylmethylamino)-5-ethylsulfonylphenyl]-2-methylisoquinolin-1-one]
IC50 [1, 5]: < 500 nM
IC50 ([2]; Raji, Cell-MTS proliferation): < 500 nM
IC50 ([3]; HL-60, Cell-MTS proliferation): < 500 nM
IC50 [4, 6]: > 5000 nM

Cc1cc(-c2cc(OCc3ccccc3OC(F)F)cc(S(C)(=O)=O)c2)cn(C)c1=O [Example 333, 5-[3-[[2-(difluoromethoxy)phenyl]methoxy]-5-methylsulfonylphenyl]-1,3-dimethylpyridin-2-one]
IC50 [1, 5]: < 500 nM
IC50 ([2]; Raji, Cell-MTS proliferation): 500 to 5000 nM
IC50 ([3]; HL-60, Cell-MTS proliferation): < 500 nM
IC50 [4, 6]: > 5000 nM

Cn1cc(-c2ncc3c(=O)n(C)cc(-c4cc(S(C)(=O)=O)ccc4OCC4CC4)c3n2)cn1 [Example 224, 8-[2-(cyclopropylmethoxy)-5-methylsulfonylphenyl]-6-methyl-2-(1-methylpyrazol-4-yl)pyrido[4,3-d]pyrimidin-5-one]
IC50 [1, 5]: < 500 nM
IC50 ([2]; Raji, Cell-MTS proliferation): < 500 nM
IC50 ([3]; HL-60, Cell-MTS proliferation): < 500 nM
IC50 [4, 6]: > 5000 nM

CCS(=O)(=O)c1ccc(NCC2CC2)c(-c2cc(N(C)C)c(=O)n(C)c2)c1 [Example 440, 5-[2-(cyclopropylmethylamino)-5-ethylsulfonylphenyl]-3-(dimethylamino)-1-methylpyridin-2-one]
IC50 [1, 5]: < 500 nM
IC50 [2, 7]: < 500 nM
IC50 [3, 8]: < 500 nM
IC50 [4, 9]: > 5000 nM

CCS(=O)(=O)c1ccc(OCC2CC2)c(-c2cn(C)c(=O)c3ccccc23)c1 [Example 135, 4-[2-(cyclopropylmethoxy)-5-ethylsulfonylphenyl]-2-methylisoquinolin-1-one]
IC50 ([1]; class symbols A/B/C): < 500 nM
IC50 [2, 10]: < 500 nM
IC50 [3, 11]: < 500 nM
IC50 [4, 12]: 500 to 5000 nM

Cc1cc(-c2cc(N(C)S(C)(=O)=O)ccc2Oc2ccc(F)cc2F)cn(C)c1=O [Example 229, N-[4-(2,4-difluorophenoxy)-3-(1,5-dimethyl-6-oxopyridin-3-yl)phenyl]-N-methylmethanesulfonamide]
IC50 [1, 5]: < 500 nM
IC50 ([2]; Raji, Cell-MTS proliferation): < 500 nM
IC50 ([3]; HL-60, Cell-MTS proliferation): < 500 nM
IC50 [4, 6]: > 5000 nM

Cn1cc(-c2cc(S(C)(=O)=O)ncc2OCC2CC2)c2ccccc2c1=O [Example 200, 4-[5-(cyclopropylmethoxy)-2-methylsulfonylpyridin-4-yl]-2-methylisoquinolin-1-one]
IC50 [1, 5]: < 500 nM
IC50 ([2]; Raji, Cell-MTS proliferation): 500 to 5000 nM
IC50 ([3]; HL-60, Cell-MTS proliferation): < 500 nM
IC50 [4, 6]: > 5000 nM

CCS(=O)(=O)Nc1ccc(Oc2ccc(F)cc2F)c(-c2cc(OC(F)F)c(=O)n(C)c2)c1 [Example 289, N-[3-[5-(difluoromethoxy)-1-methyl-6-oxopyridin-3-yl]-4-(2,4-difluorophenoxy)phenyl]ethanesulfonamide]
IC50 [1, 5]: < 500 nM
IC50 ([2]; Raji, Cell-MTS proliferation): < 500 nM
IC50 ([3]; HL-60, Cell-MTS proliferation): < 500 nM
IC50 [4, 6]: > 5000 nM

Cn1cc(-c2cc(S(C)(=O)=O)ccc2N[C@H]2CC[C@H](O)CC2)c2ccccc2c1=O [Example 192, 4-[2-[(trans-4-hydroxycyclohexyl)amino]-5-methylsulfonylphenyl]-2-methylisoquinolin-1-one]
IC50 [1, 5]: < 500 nM
IC50 ([2]; Raji, Cell-MTS proliferation): < 500 nM
IC50 ([3]; HL-60, Cell-MTS proliferation): < 500 nM
IC50 [4, 6]: > 5000 nM

Cn1cc(-c2cc(S(C)(=O)=O)ccc2NCC2CC2)c2c(c1=O)CCCC2 [Example 223, 4-[2-(cyclopropylmethylamino)-5-methylsulfonylphenyl]-2-methyl-5,6,7,8-tetrahydroisoquinolin-1-one]
IC50 [1, 5]: < 500 nM
IC50 ([2]; Raji, Cell-MTS proliferation): 500 to 5000 nM
IC50 ([3]; HL-60, Cell-MTS proliferation): < 500 nM
IC50 [4, 6]: > 5000 nM

Cn1cc(-c2cc(NS(C)(=O)=O)ccc2Oc2ccc(F)cc2F)c2occc2c1=O [Example 380, N-[4-(2,4-difluorophenoxy)-3-(5-methyl-4-oxofuro[3,2-c]pyridin-7-yl)phenyl] methanesulfonamide]
IC50 [1, 5]: < 500 nM
IC50 [2, 7]: < 500 nM
IC50 [3, 8]: < 500 nM
IC50 [4, 9]: > 5000 nM

CCCCc1cnc(NS(=O)(=O)CC)nc1-c1cc(C)c(=O)n(C)c1 [Example 310, N-[5-butyl-4-(1,5-dimethyl-6-oxopyridin-3-yl)pyrimidin-2-yl] ethanesulfonamide]
IC50 [1, 5]: < 500 nM
IC50 ([2]; Raji, Cell-MTS proliferation): < 500 nM
IC50 ([3]; HL-60, Cell-MTS proliferation): < 500 nM
IC50 [4, 6]: > 5000 nM

CCS(=O)(=O)c1ccc(OCC2CC2)c(-c2cn(C)c(=O)c3sc(C(N)=O)cc23)c1 [Example 265, 4-[2-(cyclopropylmethoxy)-5-ethylsulfonylphenyl]-6-methyl-7-oxothieno[2,3-c]pyridine-2-carboxamide]
IC50 [1, 5]: < 500 nM
IC50 ([2]; Raji, Cell-MTS proliferation): < 500 nM
IC50 ([3]; HL-60, Cell-MTS proliferation): < 500 nM
IC50 [4, 6]: > 5000 nM

Cc1cc(=O)n(C)cc1-c1cc(NS(C)(=O)=O)ccc1Oc1ccc(F)cc1F [Example 101, N-[4-(2,4-difluorophenoxy)-3-(1,4-dimethyl-6-oxopyridin-3-yl)phenyl]methanesulfonamide]
IC50 ([1]; class symbols A/B/C): < 500 nM
IC50 [2, 10]: < 500 nM
IC50 [3, 11]: < 500 nM
IC50 [4, 12]: > 5000 nM

CCc1ccc(S(C)(=O)=O)cc1-c1ccc(=O)n(C)c1 [Example 312, 5-(2-ethyl-5-methylsulfonylphenyl)-1-methylpyridin-2-one]
IC50 [1, 5]: 500 to 5000 nM
IC50 ([2]; Raji, Cell-MTS proliferation): > 5000 nM
IC50 ([3]; HL-60, Cell-MTS proliferation): > 5000 nM
IC50 [4, 6]: > 5000 nM

CCS(=O)(=O)Nc1ccc(Oc2ccc(F)cc2F)c(-c2cn(C)c(=O)c3ccncc23)c1 [Example 127, N-[4-(2,4-difluorophenoxy)-3-(2-methyl-1-oxo-2,6-naphthyridin-4-yl)phenyl]ethanesulfonamide]
IC50 ([1]; class symbols A/B/C): < 500 nM
IC50 [2, 10]: < 500 nM
IC50 [3, 11]: < 500 nM
IC50 [4, 12]: > 5000 nM

CCS(=O)(=O)c1ccc(O[C@H]2CC[C@H](O)CC2)c(-c2cn(C)c(=O)c3ccccc23)c1 [Example 181, 4-[5-ethylsulfonyl-2-(trans-4-hydroxycyclohexyl)oxyphenyl]-2-methylisoquinolin-1-one]
IC50 [1, 5]: < 500 nM
IC50 ([2]; Raji, Cell-MTS proliferation): < 500 nM
IC50 ([3]; HL-60, Cell-MTS proliferation): < 500 nM
IC50 [4, 6]: > 5000 nM

CCS(=O)(=O)c1ccc(OCC2CC2)c(-c2cc(OC(F)F)c(=O)n(C)c2)c1 [Example 287, 5-[2-(cyclopropylmethoxy)-5-ethylsulfonylphenyl]-3-(difluoromethoxy)-1-methylpyridin-2-one]
IC50 [1, 5]: < 500 nM
IC50 ([2]; Raji, Cell-MTS proliferation): 500 to 5000 nM
IC50 ([3]; HL-60, Cell-MTS proliferation): < 500 nM
IC50 [4, 6]: > 5000 nM

CCS(=O)(=O)Nc1ccc(OC2CCOC2)c(-c2cc(C)c(=O)n(C)c2)c1 (stereo not drawn) [Example 445, N-[3-(1,5-dimethyl-6-oxopyridin-3-yl)-4-(oxolan-3-yloxy)phenyl]ethanesulfonamide]
IC50 [1, 5]: < 500 nM
IC50 [2, 7]: < 500 nM
IC50 [3, 8]: < 500 nM
IC50 [4, 9]: > 5000 nM

Cn1cc(-c2cc(CS(C)(=O)=O)ccc2Oc2ccc(F)cc2F)n2cncc2c1=O [Example 372, 5-[2-(2,4-difluorophenoxy)-5-(methylsulfonylmethyl)phenyl]-7-methylimidazo[1,5-a]pyrazin-8-one]
IC50 [1, 5]: < 500 nM
IC50 ([2]; Raji, Cell-MTS proliferation): < 500 nM
IC50 ([3]; HL-60, Cell-MTS proliferation): < 500 nM
IC50 [4, 6]: > 5000 nM

CCS(=O)(=O)Nc1cccc(-c2cn(C)c(=O)c3ccc(-c4ccc(C)nc4)cc23)c1 [Example 72, N-[3-[2-methyl-6-(6-methylpyridin-3-yl)-1-oxoisoquinolin-4-yl]phenyl]ethanesulfonamide]
IC50 ([1]; class symbols A/B/C): < 500 nM
IC50 [2, 10]: < 500 nM
IC50 [3, 11]: < 500 nM
IC50 [4, 12]: 500 to 5000 nM

Cn1cc(-c2cc(CS(C)(=O)=O)ccc2Oc2ccc(F)cc2F)cc(F)c1=O [Example 437, 5-[2-(2,4-difluorophenoxy)-5-(methylsulfonylmethyl)phenyl]-3-fluoro-1-methylpyridin-2-one]
IC50 [1, 5]: < 500 nM
IC50 [2, 7]: < 500 nM
IC50 [3, 8]: < 500 nM
IC50 [4, 9]: > 5000 nM

CCS(=O)(=O)Nc1ccc(OCC2CC2)c(-c2cn(C)c(=O)c3occc23)c1 [Example 255, N-[4-(cyclopropylmethoxy)-3-(6-methyl-7-oxofuro[2,3-c]pyridine-4-yl)phenyl]ethanesulfonamide]
IC50 [1, 5]: < 500 nM
IC50 ([2]; Raji, Cell-MTS proliferation): < 500 nM
IC50 ([3]; HL-60, Cell-MTS proliferation): < 500 nM
IC50 [4, 6]: > 5000 nM

Cc1cc(-c2nc(CS(C)(=O)=O)ncc2OCC2CC2)cn(C)c1=O [Example 144, 5-[5-(cyclopropylmethoxy)-2-(methylsulfonylmethyl)pyrimidin-4-yl]-1,3-dimethylpyridin-2-one]
IC50 [1, 5]: < 500 nM
IC50 ([2]; Raji, Cell-MTS proliferation): > 5000 nM
IC50 ([3]; HL-60, Cell-MTS proliferation): 500 to 5000 nM
IC50 [4, 6]: > 5000 nM
